Reference: PubChem BioAssay AID463130 (The Scripps Research Institute Molecular Screening Center, 2010)
pIC50: −log10 of the molar value.

Target: Protein phosphatase methylesterase 1 (Homo sapiens) (UniProt Q9Y570)
Experiment: inhibition of PME-1 probe labeling – gel-based ABPP, IC50, set 1, late-stage follow-up (AID 463130)
Conditions: fluorophosphonate probe labeling

Chain of Protein phosphatase methylesterase 1 (Homo sapiens) (Q9Y570 whole entry, looked up): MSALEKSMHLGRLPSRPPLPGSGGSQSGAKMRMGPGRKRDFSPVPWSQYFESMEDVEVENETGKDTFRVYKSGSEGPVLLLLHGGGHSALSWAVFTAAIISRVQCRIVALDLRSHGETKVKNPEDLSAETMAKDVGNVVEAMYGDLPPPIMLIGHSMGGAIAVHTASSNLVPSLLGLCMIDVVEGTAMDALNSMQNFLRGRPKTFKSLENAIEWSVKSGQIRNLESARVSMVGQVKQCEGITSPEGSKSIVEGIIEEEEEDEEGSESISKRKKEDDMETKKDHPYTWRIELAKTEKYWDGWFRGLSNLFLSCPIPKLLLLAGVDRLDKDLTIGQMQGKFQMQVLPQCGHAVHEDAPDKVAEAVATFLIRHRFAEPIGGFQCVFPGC

COC(=O)N1C(=O)[C@](c2ccccc2)(C(C)C)N1C(=O)OC
pIC50: 6.71
